Values of other authors, collected in patent US20210322464A1 (priority 2020, published 2021).

Conditions: 1000 μg per day, constant syringe pump infusion for 14 days; cited from earlier work

O=[Se](O)O [sodium selenite]
adverse effects: No adverse effects
